Series [1] relates to cotton aphid. In words: Insecticidal test on cotton aphid (root zone irrigation). The format is in vivo. The settings on record: Aphis gossypii, in Cucumis sativus, 72 h. On the procedure: A wettable powder prepared in accordance with Formulation Example 2 was diluted with water to a concentration of an active ingredient of 100 ppm. The root zone of cucumber seedlings which had been inoculated with larvae of cotton aphid was irrigated with 5 mL of the solution. The treated cucumber seedlings were placed in a thermostatic chamber at 25° C. for 3 days, and the live insects were counted for calculation of the mortality by Equation 2. The test was carried out by one series system.

Another series deals with diamondback moth. In words: Insecticidal test on diamondback moth. The format is in vivo. The settings on record: Plutella xylostella, 144 h. The procedure, abridged: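 Cabbage leaves were dipped in a wettable-powder dilution at 500 ppm active ingredient, air-dried and given 10 second-instar larvae per cup. Mortality was counted after 6 days at 25 °C, in a single series.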

Another series concerns cotton bollworm. In words: Insecticidal test on cotton bollworm. The class given is in vivo. Conditions: Helicoverpa armigera, 144 h. The procedure: A wettable powder prepared in accordance with Formulation Example 2 was diluted with water to a concentration of an active ingredient of 500 ppm. Cabbage leaves were dipped in this solution and dried in air and then put in a plastic cup having a capacity of 60 mL. Five hatched larvae of cotton bollworm were released in the cup, and the cup was lidded and placed in a thermostatic chamber at 25° C. for 6 days, and the number of dead larvae were assessed for calculation of the mortality by Equation 2. The test was carried out by two series system.

The subject of the next series is two-spotted spider mites. In words: Miticidal test on two-spotted spider mites (seedling dip). The format is in vivo, Tetranvchus urticae. Conditions: Glycine max, 312 h, read-out: protective value. The procedure, abridged:
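Soybean seedlings carrying adult mites were dipped in wettable-powder dilution at 500 ppm active ingredient, air-dried, and held at 25° C for 13 days. Live mites were counted and a protective value calculated.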

The test system of series [2] is cotton aphid. In words: Insecticidal test on cotton aphid (seedling dip). The class given is in vivo. The settings on record: Aphis gossypii, 72 h. The procedure, abridged: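 Cucumber seedlings carrying cotton aphid larvae were dipped in a water-diluted wettable powder at 500 ppm active ingredient, then air-dried. After 3 days at 25° C. live insects were counted and mortality calculated; single series.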

A further series deals with brown rice planthopper. In words: Insecticidal test on brown rice planthopper. The class given is in vivo. The settings on record: 144 h. The procedure, abridged: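 Rice sprouts dipped in 500 ppm active ingredient (water-diluted wettable powder), then exposed to ten third-instar brown rice planthopper larvae. Held at 25° C. for 6 days; dead larvae counted for mortality, single series.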

Series [3] concerns southern root-knot nematodes. In words: Nematicidal test on root-knot nematode. The settings on record: Meloidogyne incognita, 120 h. The class given is in vivo. On the procedure: A compound to be tested was dissolved in N,N-dimethylformamide containing 1 mass % of tween 20, and this solution was diluted with distilled water to a concentration of an active ingredient of 20 ppm. 0.5 mL of the solution was mixed with 0.5 mL of a suspension containing about 30 second-instar larvaes of southern root-knot nematodes, and the mixture was placed in a thermostatic chamber at 25° C. for 5 days. The number of dead nematodes and the number of live nematodes were assessed by a microscope for calculation of the mortality by Equation 3. The test was carried out by two series system.

The mark [4] stands for this setting: 500 ppm active ingredient, soybean seedlings with imago mites dipped, 25° C., 13 days.
The mark [5] stands for this setting: 500 ppm active ingredient, cabbage leaves dipped, second-instar larvae, 25° C., 6 days, read-out: mortality.
Setting [6] is: 500 ppm active ingredient, cabbage leaves dipped, hatched larvae, 25° C., 6 days, read-out: mortality.

In general, mortality refers to the percentage killed. In general, melting point refers to the temperature, or range, at which the solid turns liquid.

Structures are written as SMILES. Read-outs that look alike come from different tables or passages of the source.

In the series with cotton aphid [1], `CC(=O)Nc1cc(OCC(F)(F)C(F)(F)F)nn1-c1cc([S+]([O-])CC(F)(F)F)c(C)cc1F` (stereo not drawn) [1-18, 5-acetylamino-1-{2-fluoro-4-methyl-5-(2,2,2-trifluoroethylsulfinyl)phenyl}-3-(2,2,3,3,3-pentafluoropropoxy)pyrazole] had a mortality at 100 ppm of at least 90%. Further, the mortality at 500 ppm in the series with diamondback moth (in Brassica oleracea), with cotton bollworm (in Brassica oleracea), with cotton aphid [2] (in Cucumis sativus) and with brown rice planthopper was at least 90% in each case. In addition, the pest or weed control at 500 ppm with two-spotted spider mites (setting [4]) was at least 90%.
In series [3], `Cc1cc(F)c(-n2nc(OCC(F)(F)C(F)(F)F)cc2C)cc1[S+]([O-])CC(F)(F)F` (stereo not drawn) [1-92, 1-{2-fluoro-4-methyl-5-(2,2,2-trifluoroethylsulfinyl)phenyl}-5-methyl-3-(2,2,3,3,3-pentafluoropropoxy)pyrazole] returned a mortality at 20 ppm of at least 90%. Besides, the pest or weed control at 500 ppm in the series with two-spotted spider mites (setting [4]) is at least 90%. In addition, the mortality at 500 ppm in the series with cotton aphid [2] (in Cucumis sativus) and in the series with brown rice planthopper was at least 90% in each case.
In turn, `Cc1cc(F)c(-n2nc(OCC(F)(F)C(F)(F)F)cc2CC(N)=O)cc1SCC(F)(F)F` [1-139, 1-{2-fluoro-4-methyl-5-(2,2,2-trifluoroethylthio)phenyl}-3-(2,2,3,3,3-pentafluoropropoxy)pyrazole-5-carboxyamide] showed a melting point of 102 to 104 °C.
`CCOC(=O)c1cc(OCC(F)(F)C(F)(F)F)nn1-c1cc(SCC(F)(F)F)c(C)cc1F` [1-143, ethyl 1-{2-fluoro-4-methyl-5-(2,2,2-trifluoroethylthio)phenyl}-3-(2,2,3,3,3-pentafluoropropoxy)pyrazole-5-carboxylate] registered a melting point of 81 to 84 °C.
As for `C#CCNc1cc(OCC(F)(F)C(F)(F)F)nn1-c1cc([S+]([O-])CC(F)(F)F)c(C)cc1F` (stereo not drawn) [1-162, 1-{2-fluoro-4-methyl-5-(2,2,2-trifluoroethylsulfinyl)phenyl}-3-(2,2,3,3,3-pentafluoropropoxy)-5-(2-propynylamino)pyrazole], the mortality at 500 ppm in the series with diamondback moth (in Brassica oleracea), in the series on cotton bollworm (in Brassica oleracea) and with cotton aphid [2] (in Cucumis sativus) was at least 90% throughout. In addition, the mortality at 20 ppm in series [3] was at least 90%. Besides, the pest or weed control at 500 ppm in the series on two-spotted spider mites (setting [4]) was at least 90%.
For `CNc1cc(OC(F)(F)C(F)OC(F)(F)C(F)(F)C(F)(F)F)nn1-c1cc([S+]([O-])CC(F)(F)F)c(C)cc1F` (stereo not drawn) [1-348, 1-{2-fluoro-4-methyl-5-(2,2,2-trifluoroethylsulfinyl)phenyl}-5-methylamino-3-{1,1,2-trifluoro-2-(heptafluoropropoxy)ethoxy}pyrazole], the mortality at 500 ppm with diamondback moth (setting [5]) and in the series with cotton bollworm (setting [6]) was at least 90% throughout. For the same molecule, in series [3], the mortality at 20 ppm was at least 90%. Further, the pest or weed control at 500 ppm in the series with two-spotted spider mites is at least 90%.
As for `CC(=O)Nc1cc(OC(F)(F)C(F)F)nn1-c1cc([S+]([O-])CC(F)(F)F)c(C)cc1F` (stereo not drawn) [1-1368, 5-acetylamino-1-{2-fluoro-4-methyl-5-(2,2,2-trifluoroethylsulfinyl)phenyl}-3-(1,1,2,2-tetrafluoroethoxy)pyrazole], the mortality at 500 ppm in the series with diamondback moth (in Brassica oleracea), with cotton bollworm (in Brassica oleracea), in the series with cotton aphid [2] (in Cucumis sativus) and with brown rice planthopper was at least 90% throughout. In the series on two-spotted spider mites (setting [4]), the pest or weed control at 500 ppm is at least 90%.
`Cc1cc(F)c(-n2cc(C#N)c(OC(F)(F)C(F)OC(F)(F)F)n2)cc1SCC(F)(F)F` (stereo not drawn) [1-1587, 4-cyano-1-{2-fluoro-4-methyl-5-(2,2,2-trifluoroethylthio)phenyl}-3-{1,1,2-trifluoro-2-(trifluoromethoxy)ethoxy}pyrazole] gave a melting point of 57 to 58 °C. Moreover, in the series on two-spotted spider mites (setting [4]), the pest or weed control at 500 ppm was at least 90%.
For `Cc1cc(F)c(-n2nc(OCC(F)(F)C(F)(F)C(F)(F)F)cc2NC=O)cc1SCC(F)(F)F` [1-1593, 1-{2-fluoro-4-methyl-5-(2,2,2-trifluoroethylthio)phenyl}-5-formylamino-3-(2,2,3,3,4,4,4-heptafluorobutoxy)pyrazole], the mortality at 500 ppm in the series on diamondback moth (setting [5]) is at least 90%; with cotton bollworm (setting [6]) it was at least 90%; with cotton aphid [2] (500 ppm active ingredient, cucumber seedlings with larvae of cotton aphid dipped, 25° C., 3 days, read-out: mortality), at least 90%; with brown rice planthopper, at least 90%. Also, the pest or weed control at 500 ppm in the series with two-spotted spider mites is at least 90%.

Source of the values: patent US8802713B2, “3-alkoxy-1-phenylpyrazole derivatives and pesticides” (Kumiai Chemical Industry Co., Ltd., priority 2007, dated 2014).
